# Reference: patent publication US20190085289A1, “COMPOSITIONS AND METHODS FOR PATHOGEN INACTIVATION OF PLATELETS” (Cerus Corporation, priority 2017, published 2019)
# Columns and labels:
# [1] = Stability of S-59 in InterSol PAS protected from ambient light (HPLC); assay type: physicochemical; settings: for S-59 UV peak area (HPLC) / S-59 concentration (HPLC): 230 μM in InterSol PAS, room temp, protected from light
# Procedure: Additional studies evaluated stability of the S-59 (amotosalen) pathogen inactivation compound formulated in a platelet additive solution (PAS), but protected from ambient light exposure. A 230 μM solution of S-59 was prepared in the commercially available PAS solution InterSol® (Fenwal Inc.) and maintained at room temperature protected from ambient light conditions. HPLC analysis was performed on samples at times listed in Table 2 for both S-59 and photoproducts.
# K. pneumoniae = test: Photochemical inactivation of K. pneumoniae in platelets, bacterial titer assay; assay type: cell-based
# Procedure: Another study evaluated 24 hour stability and photoconversion of amotosalen (S-59) in PAS with plasma and platelets, in the presence of bacteria. Two ABO matched platelet units in 100% plasma were pooled, split into two units and InterSol® PAS added (e.g., 65/35). S-59 was added to the test unit at a concentration of 150 but not initially to the control unit. A log culture of K. pneumoniae (˜8 log cfu/mL) was added to the units at a target of ˜60 CFU/unit and the units were incubated in a platelets shaker at 22° C. for approximately 24 hours. At the end of incubation, S-59 was also added to the control unit at the same concentration and both control and test units were subjected to UVA light. Samples were taken pre- and post-UVA illumination for both units bacterial titer assay and HPLC. Post-illumination both units were subjected to a CAD processing step to remove residual amotosalen and photoproducts and stored on a platelet shaker for 7 days to confirm no growth of bacteria. Photochemical inactivation of K. pneumoniae was also measured post-UVA exposure, with the titer (log cfu/mL) results shown in the following table.
# FCV = FCV inactivation with decreasing amounts of S-59 after pre-incubation, plaque assay; assay type: cell-based, feline calicivirus (FCV); settings: for FCV titer after UVA: UVA ~3 J/cm^2; for FCV log inactivation: vs 0 hr control titer 5.84
# Procedure: An additional study was performed to evaluate the level of FCV inactivation with decreasing amounts of S-59 after extended incubation (e.g., pre-incubation) in PAS/Plasma. In this study, platelets in PAS/Plasma (65%/35%) were spiked with a stock of FCV at a 1:100 dilution. The FCV-spiked platelets were then split into 16 separate test units. Each unit was dosed with S-59 at approximately 150 μM, 90 μM, 30 μM or 15 μM concentration. Following the addition of S-59 in one of four dosing groups, the platelet units in each dosing group were incubated for 0, 4, 8 or 24 hr prior to illumination. A control sample was taken from each unit for virus titer determination and HPLC analysis of S-59 concentration pre-UVA treatment, followed by UVA light exposure at ˜3 J/cm^2 for photochemical treatment of the test samples. Following UVA treatment, the control and test samples were evaluated for inactivation of FCV using a standard virological plaque assay. […] Control titer at 0 hr pool used for all log inactivation calculations (5.84 log/mL).
# [2] = Post-UVA residual S-59 concentration in FCV-spiked platelets (HPLC); assay type: physicochemical; settings: for Post-UVA S-59 concentration: UVA ~3 J/cm^2
# Procedure: An additional study was performed to evaluate the level of FCV inactivation with decreasing amounts of S-59 after extended incubation (e.g., pre-incubation) in PAS/Plasma. In this study, platelets in PAS/Plasma (65%/35%) were spiked with a stock of FCV at a 1:100 dilution. The FCV-spiked platelets were then split into 16 separate test units. Each unit was dosed with S-59 at approximately 150 μM, 90 μM, 30 μM or 15 μM concentration. Following the addition of S-59 in one of four dosing groups, the platelet units in each dosing group were incubated for 0, 4, 8 or 24 hr prior to illumination. A control sample was taken from each unit for virus titer determination and HPLC analysis of S-59 concentration pre-UVA treatment, followed by UVA light exposure at ˜3 J/cm^2 for photochemical treatment of the test samples. Following UVA treatment, the control and test samples were evaluated for inactivation of FCV using a standard virological plaque assay.
# HPLC analysis also was performed to determine the amount (e.g., concentration) of S-59 remaining in samples after UVA illumination and photoconversion (Table 10).
# [3] = Control unit (S-59 added after ~24 h incubation, then UVA), Replicate 1
# [4] = Control unit (S-59 added after ~24 h incubation, then UVA), Replicate 2
# [5] = Test unit (S-59 150 present during ~24 h incubation, then UVA), Replicate 1
# [6] = Test unit (S-59 150 present during ~24 h incubation, then UVA), Replicate 2
# [7] = S-59 15 μM, pre-incubation 0 hr
# [8] = S-59 15 μM, pre-incubation 4 hr
# [9] = S-59 15 μM, pre-incubation 8 hr
# [10] = S-59 15 μM, pre-incubation 24 hr
# [11] = S-59 30 μM, pre-incubation 0 hr
# [12] = S-59 30 μM, pre-incubation 4 hr
# [13] = S-59 30 μM, pre-incubation 8 hr
# [14] = S-59 30 μM, pre-incubation 24 hr
# [15] = S-59 90 μM, pre-incubation 0 hr
# [16] = S-59 90 μM, pre-incubation 4 hr
# [17] = S-59 90 μM, pre-incubation 8 hr
# [18] = S-59 90 μM, pre-incubation 24 hr
# [19] = S-59 150 μM, pre-incubation 0 hr
# [20] = S-59 150 μM, pre-incubation 4 hr
# [21] = S-59 150 μM, pre-incubation 8 hr
# [22] = S-59 150 μM, pre-incubation 24 hr
smiles,measurement,setting,value
"Cc1oc2c(C)c3oc(=O)cc(C)c3cc2c1COCCN [S-59, 3-(2-aminoethoxymethyl)-2,5,9-trimethylfuro[3,2-g]chromen-7-one]",S-59 UV peak area (HPLC),[1]; 5.5 hr,3451.6489
same,S-59 concentration (HPLC),[1]; 5.5 hr,232.74 µM
same,S-59 UV peak area (HPLC),[1]; 21.5 hr,3439.4907
same,S-59 concentration (HPLC),[1]; 21.5 hr,231.93 µM
same,S-59 UV peak area (HPLC),[1]; 28.5 hr,3421.447
same,S-59 concentration (HPLC),[1]; 28.5 hr,230.72 µM
same,S-59 UV peak area (HPLC),[1]; 44 hr,3425.1028
same,S-59 concentration (HPLC),[1]; 44 hr,230.96 µM
same,S-59 UV peak area (HPLC),[1]; 45.5 hr,3399.0142
same,S-59 concentration (HPLC),[1]; 45.5 hr,229.22 µM
same,S-59 UV peak area (HPLC),[1]; 53 hr,3421.4934
same,S-59 concentration (HPLC),[1]; 53 hr,230.72 µM
same,S-59 UV peak area (HPLC),[1]; 77 hr,3446.6414
same,S-59 concentration (HPLC),[1]; 77 hr,232.41 µM
same,S-59 UV peak area (HPLC),[1]; T 0,3393.0647
same,S-59 concentration (HPLC),[1]; T 0,228.82 µM
same,loss of S-59,"[1]; InterSol PAS, protected from ambient light, at 77 hours",no loss
same,K. pneumoniae Log Reduction,K. pneumoniae; [3],>7.3 Log
same,K. pneumoniae Titer Post-UVA,K. pneumoniae; [3],<−0.7 log cfu/mL
same,K. pneumoniae Log Reduction,K. pneumoniae; [4],>6.3 Log
same,K. pneumoniae Titer Post-UVA,K. pneumoniae; [4],<−0.7 log cfu/mL
same,K. pneumoniae Log Reduction,K. pneumoniae; [5],>7.3 Log
same,K. pneumoniae Titer Post-UVA,K. pneumoniae; [5],<−0.7 log cfu/mL
same,K. pneumoniae Log Reduction,K. pneumoniae; [6],>6.2 Log
same,K. pneumoniae Titer Post-UVA,K. pneumoniae; [6],<−0.7 log cfu/mL
same,photochemical inactivation of K. pneumoniae,"K. pneumoniae; post-UVA, both the control and test units",High level inactivation
same,FCV titer after UVA,FCV; [7],5.65 log PFU/mL
same,FCV log inactivation,FCV; [7],0.19 log/mL
same,FCV titer after UVA,FCV; [8],4.49 log PFU/mL
same,FCV log inactivation,FCV; [8],1.35 log/mL
same,FCV titer after UVA,FCV; [9],2.22 log PFU/mL
same,FCV log inactivation,FCV; [9],3.62 log/mL
same,FCV titer after UVA,FCV; [10],0.52 log PFU/mL
same,FCV log inactivation,FCV; [10],5.32 log/mL
same,FCV titer after UVA,FCV; [11],4.91 log PFU/mL
same,FCV log inactivation,FCV; [11],0.93 log/mL
same,FCV titer after UVA,FCV; [12],2.00 log PFU/mL
same,FCV log inactivation,FCV; [12],3.84 log/mL
same,FCV titer after UVA,FCV; [13],<1.22 log PFU/mL
same,FCV log inactivation,FCV; [13],4.62 log/mL
same,FCV titer after UVA,FCV; [14],<−0.22 log PFU/mL
same,FCV log inactivation,FCV; [14],5.62 log/mL
same,FCV titer after UVA,FCV; [15],4.90 log PFU/mL
same,FCV log inactivation,FCV; [15],0.94 log/mL
same,FCV titer after UVA,FCV; [16],<0.22 log PFU/mL
same,FCV log inactivation,FCV; [16],5.62 log/mL
same,FCV titer after UVA,FCV; [17],<−0.48 log PFU/mL
same,FCV log inactivation,FCV; [17],5.84 log/mL
same,FCV titer after UVA,FCV; [18],<−0.30 log PFU/mL
same,FCV log inactivation,FCV; [18],5.84 log/mL
same,FCV titer after UVA,FCV; [19],4.33 log PFU/mL
same,FCV log inactivation,FCV; [19],1.51 log/mL
same,FCV titer after UVA,FCV; [20],<0.22 log PFU/mL
same,FCV log inactivation,FCV; [20],5.62 log/mL
same,FCV titer after UVA,FCV; [21],<−0.48 log PFU/mL
same,FCV log inactivation,FCV; [21],5.84 log/mL
same,FCV titer after UVA,FCV; [22],<−0.48 log PFU/mL
same,FCV log inactivation,FCV; [22],5.84 log/mL
same,FCV inactivation,"FCV; pre-incubation 4, 8 or 24 hours at 150 μM and 90 μM, 8 or 24 hours at 30 μM, 24 hours at 15 μM",greater than 4 logs
same,FCV inactivation,"FCV; pre-incubation 4 hr, 30 μM S-59",~4 logs
same,FCV inactivation,"FCV; pre-incubation 8 hr, 15 μM S-59",greater than 3.5 logs
same,Post-UVA S-59 concentration,"[2]; Input S-59 15 μM, pre-incubation 0 hr",3 µM
same,Post-UVA S-59 concentration,"[2]; Input S-59 15 μM, pre-incubation 4 hr",2 µM
same,Post-UVA S-59 concentration,"[2]; Input S-59 15 μM, pre-incubation 8 hr",2 µM
same,Post-UVA S-59 concentration,"[2]; Input S-59 15 μM, pre-incubation 24 hr",2 µM
same,Post-UVA S-59 concentration,"[2]; Input S-59 30 μM, pre-incubation 0 hr",5 µM
same,Post-UVA S-59 concentration,"[2]; Input S-59 30 μM, pre-incubation 4 hr",2 µM
same,Post-UVA S-59 concentration,"[2]; Input S-59 30 μM, pre-incubation 8 hr",2 µM
same,Post-UVA S-59 concentration,"[2]; Input S-59 30 μM, pre-incubation 24 hr",3 µM
same,Post-UVA S-59 concentration,"[2]; Input S-59 90 μM, pre-incubation 0 hr",14 µM
same,Post-UVA S-59 concentration,"[2]; Input S-59 90 μM, pre-incubation 4 hr",10 µM
same,Post-UVA S-59 concentration,"[2]; Input S-59 90 μM, pre-incubation 8 hr",11 µM
same,Post-UVA S-59 concentration,"[2]; Input S-59 90 μM, pre-incubation 24 hr",9 µM
same,Post-UVA S-59 concentration,"[2]; Input S-59 150 μM, pre-incubation 0 hr",29 µM
same,Post-UVA S-59 concentration,"[2]; Input S-59 150 μM, pre-incubation 4 hr",33 µM
same,Post-UVA S-59 concentration,"[2]; Input S-59 150 μM, pre-incubation 8 hr",22 µM
same,Post-UVA S-59 concentration,"[2]; Input S-59 150 μM, pre-incubation 24 hr",19 µM
same,residual S-59 concentration post-treatment,"[2]; S-59 dosing groups with pre-incubation, levels reached",less than 5 μM
same,residual S-59 concentration,"[2]; conditions giving high levels of inactivation (e.g., >4 logs)",2 µM
